In patent publication US4248883A, “1-(3-Mercapto-2-methylpropanoyl)prolyl amino acid derivatives and salts thereof, processes for their preparation, and pharmaceutical compositions containing such compounds” (Dainippon Pharmaceutical Co., Ltd., priority 1978, dated 1981):
Read-outs that look alike come from different tables or passages of the source.

Legend:
[1] = test system: Goldblatt two-kidney renal hypertensive rats; experiment: Test 1: antihypertensive activity, oral, tail-plethysmographic blood pressure in Goldblatt two-kidney renal hypertensive rats; format: in vivo, rat (male STD Wistar strain); details: for change in vivo at 100 µmol/kg: Rattus norvegicus; for Peak time (time at which the maximum hypotensive effect was observed): renal hypertensive rats; for antihypertensive effect time course relative to compound 1 (SQ-14225), FIGS. 1 and 2: single oral, 0.015 millimole/kg and 0.1 millimole/kg, mean of six animals
Excerpt: The contralateral kidney and its renal artery were left intact. The animals were maintained on commercial rat chow and tap water ad libitum.
In each Figure, the ordinate represents the changes in blood pressure (mmHg) and the abscissa, the time (hours) elapsed after oral administration.

in vivo = details: mouse, in vivo
Excerpt: (§1) Male STD-ddY strain mice, weighing 21 to 24 grams, were used.

mice = experiment: Test 2: toxicity (acute LD50 in mice); details: mice
Excerpt: as §1

[2] = test system: experimental hypertensive animals; details: Science 196, 441 (1977); cited from earlier work
[3] = test system: angiotensin I-converting enzyme; details: Science 196, 441 (1977); cited from earlier work
[4] = test system: angiotensin I-converting enzyme; details: Biochemistry, 16, 5484 (1977); cited from earlier work
[5] = oral, 0.1 millimole/kg, 7 hours after administration, % of initial blood pressure, read-out: Change in blood pressure, 7 hours after administration (%)
[6] = oral, 0.1 millimole/kg, at peak time, % of initial blood pressure, read-out: Change in blood pressure, peak time (%)
[7] = oral, 0.1 millimole/kg, 7 hours after administration
[8] = oral, 0.1 millimole/kg, at peak time
[9] = oral, 0.1 millimole/kg, positive = decrease

Structure (SMILES) | change in vivo at 100 µmol/kg [1, 5] [%] | change in vivo at 100 µmol/kg [1, 6] [%] | Change in blood pressure, 7 hours after administration [1, 7] [mmHg] | Change in blood pressure, peak time [1, 8] [mmHg] | Peak time (time at which the maximum hypotensive effect was observed) ([1]; oral, 0.1 millimole/kg) [h] | antihypertensive effect time course relative to compound 1 (SQ-14225), FIGS. 1 and 2 [1] | LD50 (in vivo; iv) [mg/kg] | LD50 (in vivo; po) [mg/kg] | toxicity (in words) (mice) | antihypertensive activity in experimental hypertensive animals [2] | change in vivo at 100 µmol/kg ([1]; po, 7 h, read-out: Change in blood pressure, 7 hours after administration (%)) [%] | change in vivo at 100 µmol/kg ([1]; po, read-out: Change in blood pressure, peak time (%)) [%] | decrease in initial blood pressure at 7 hours after medication [1, 9] [%] | maximum hypotensive response (decrease in initial blood pressure) [1, 9] [%] | inhibitory activity in vivo on angiotensin I-converting enzyme [3] | inhibition of angiotensin I-converting enzyme in vitro [4] | reduction of blood pressures (in words) ([1]; oral, 0.1 millimole/kg)
CC(=O)SC[C@@H](C)C(=O)N1CCC[C@H]1C(=O)N[C@@H](Cc1ccccc1)C(=O)O [A, 1-(D-3-Acetylthio-2-methylpropanoyl)-L-prolyl-L-phenylalanine] | -16 | -17 | -33 | -35 | 5 | milder and more prolonged antihypertensive effect | > 1000 | > 6000 | very weak |  |  |  |  |  |  |  | 
CCC(=O)SC[C@@H](C)C(=O)N1CCC[C@H]1C(=O)N[C@@H](Cc1ccccc1)C(=O)O [B, 1-(D-3-Propanoylthio-2-methylpropanoyl)-L-prolyl-L-phenylalanine] | -17 | -18 | -36 | -40 | 5 | milder and more prolonged antihypertensive effect | > 1000 | > 6000 | very weak |  |  |  |  |  |  |  | 
C[C@H](CSC(=O)C(C)(C)C)C(=O)N1CCC[C@H]1C(=O)N[C@@H](Cc1ccccc1)C(=O)O [C, 1-[D-3-(2,2-Dimethylpropanoyl)thio-2-methylpropanoyl]-L-prolyl-L-phenylalanine] | -18 | -20 | -37 | -41 | 5 |  |  |  |  |  |  |  |  |  |  |  | 
C[C@H](CS)C(=O)N1CCC[C@H]1C(=O)O [Compound 1, 1-(D-3-Mercapto-2-methylpropanoyl)-L-proline, reference compound] |  |  | -15 | -35 |  |  |  |  |  | superior antihypertensive activity | -8 | -18 | 8 | 18 | potent inhibitory activity in vivo | particularly good inhibitor of angiotensin I-converting enzyme | 
C[C@H](CS)C(=O)N1CCC[C@H]1C(N)=O [Compound 2, 1-(D-3-Mercapto-2-methylpropanoyl)-L-proline amide, reference compound] | -1 | -3 | -1 | -5 | 2 |  |  |  |  |  |  |  |  |  |  |  | did not reduce blood pressures
CC(=O)SC[C@@H](C)C(=O)N1CCC[C@H]1C(N)=O [Compound 3, 1-(D-3-Acetylthio-2-methylpropanoyl)-L-proline amide, reference compound] | -2 | -4 | -4 | -7 | 2 |  |  |  |  |  |  |  |  |  |  |  | did not reduce blood pressures
CC(C)C(=O)SC[C@@H](C)C(=O)N1CCC[C@H]1C(=O)N[C@@H](Cc1ccccc1)C(=O)O [D, 1-[D-3-(2-Methylpropanoyl)thio-2-methylpropanoyl]-L-prolyl-L-phenylalanine] | -14 | -18 | -29 | -37 | 5 |  |  |  |  |  |  |  |  |  |  |  | 
CCSSC[C@@H](C)C(=O)N1CCC[C@H]1C(=O)N[C@@H](Cc1ccccc1)C(=O)O [E, 1-(D-3-Ethyldithio-2-methylpropanoyl)-L-prolyl-L-phenylalanine] | -19 | -19 | -38 | -38 | 7 |  |  |  |  |  |  |  |  |  |  |  | 
C[C@H](CSC(=O)c1ccccc1)C(=O)N1CCC[C@H]1C(=O)N[C@@H](Cc1ccccc1)C(=O)O [F, 1-(D-3-Benzoylthio-2-methylpropanoyl)-L-prolyl-L-phenylalanine] | -15 | -15 | -31 | -31 | 5 |  |  |  |  |  |  |  |  |  |  |  | 
COC(=O)[C@H](Cc1ccc(O)cc1)NC(=O)[C@@H]1CCCN1C(=O)[C@H](C)CSC(C)=O [G, 1-(D-3-Acetylthio-2-methylpropanoyl)-L-prolyl-L-tyrosine methyl ester] | -15 | -17 | -29 | -33 | 5 |  |  |  |  |  |  |  |  |  |  |  | 
CCOC(=O)[C@H](Cc1ccc(O)cc1)NC(=O)[C@@H]1CCCN1C(=O)[C@H](C)CSC(C)=O [H, 1-(D-3-Acetylthio-2-methylpropanoyl)-L-prolyl-L-tyrosine ethyl ester] | -14 | -17 | -29 | -34 | 5 |  |  |  |  |  |  |  |  |  |  |  | 
CCOC(=O)[C@H](Cc1c[nH]c2ccccc12)NC(=O)[C@@H]1CCCN1C(=O)[C@H](C)CSC(C)=O [I, 1-(D-3-Acetylthio-2-methylpropanoyl)-L-prolyl-L-tryptophan ethyl ester] | -14 | -16 | -26 | -30 | 5 |  |  |  |  |  |  |  |  |  |  |  | 
CCOC(=O)[C@H](CCSC)NC(=O)[C@@H]1CCCN1C(=O)[C@H](C)CSC(C)=O [J, 1-(D-3-Acetylthio-2-methylpropanoyl)-L-prolyl-L-methionine ethyl ester] | -13 | -15 | -27 | -30 | 5 |  |  |  |  |  |  |  |  |  |  |  | 
